Source: the NIST ThermoML archive (doi:10.1016/j.jct.2016.03.026)
Several values for one entry are separate records, joined by “and”; a condition that tells them apart may be missing. Identical values can stand only once.

Experiment: xn = mol fraction of the nth substance listed
Conditions: Fluid (supercritical or subcritical phases); for speed of sound: Frequency=5 MHz, Pulse-echo method, x1 = 0.925; for mass density: 263.15 K, Vibrating tube method, x1 = 0.97

O=C=O [carbon dioxide] + CO
speed of sound
Conditions	263.13 K	263.14 K
7970 kPa	694.6 m/s and 693.1 m/s	694.8 m/s and 695.2 m/s
9960 kPa	–	715.4 m/s
9990 kPa	715.1 m/s	–
10000 kPa	714.3 m/s	–
10020 kPa	–	715.9 m/s
14940 kPa	760.5 m/s	–
14950 kPa	–	760.8 m/s
14960 kPa	759.3 m/s	–
14990 kPa	–	761 m/s
19990 kPa	799.6 m/s	801 m/s
20000 kPa	800.7 m/s	–
20020 kPa	–	800.7 m/s
24970 kPa	836 m/s	836.4 m/s
24980 kPa	835.1 m/s	–
24990 kPa	–	836.3 m/s
29960 kPa	867.4 m/s	868.8 m/s
29990 kPa	868.4 m/s	–
30000 kPa	–	868.9 m/s
34950 kPa	–	898.5 m/s
34980 kPa	–	898.5 m/s
34990 kPa	898.5 m/s	–
35000 kPa	897.7 m/s	–
39950 kPa	926.1 m/s	–
39970 kPa	925.5 m/s	–
39990 kPa	–	926.5 m/s and 926.8 m/s
44970 kPa	952.1 m/s	–
44980 kPa	951.6 m/s	–
45030 kPa	–	952.7 m/s
45040 kPa	–	952.8 m/s
49950 kPa	–	977.1 m/s
49960 kPa	–	977.1 m/s
49970 kPa	977 m/s and 976.2 m/s	–
54950 kPa	999.5 m/s	–
54980 kPa	–	1000.5 m/s
54990 kPa	1000.3 m/s	–
55010 kPa	–	1000.5 m/s
59950 kPa	1021.6 m/s	1022.5 m/s
59970 kPa	–	1022.9 m/s
59990 kPa	1022.6 m/s	–
64970 kPa	–	1043.9 m/s and 1044.2 m/s
64980 kPa	1043.7 m/s	–
65000 kPa	1043 m/s	–
69950 kPa	–	1064.3 m/s
69960 kPa	1063.9 m/s	–
69990 kPa	–	1064.1 m/s
70000 kPa	1063.4 m/s	–
74960 kPa	1083.5 m/s and 1082.7 m/s	–
74970 kPa	–	1083.7 m/s
74990 kPa	–	1084.1 m/s
79980 kPa	1101.6 m/s	–
79990 kPa	–	1102.8 m/s
80000 kPa	1102.6 m/s	1102.8 m/s
89950 kPa	–	1138.4 m/s
89990 kPa	1137.3 m/s	–
90000 kPa	1138.2 m/s	–
90020 kPa	–	1138.8 m/s
99980 kPa	–	1172.1 m/s
99990 kPa	1171.5 m/s	–
100000 kPa	1170.8 m/s	1171.8 m/s
109970 kPa	1202.4 m/s	–
109980 kPa	1203.2 m/s	1203.3 m/s
110000 kPa	–	1203.8 m/s
119950 kPa	1232.3 m/s	–
119980 kPa	1233.2 m/s	1233.5 m/s
120000 kPa	–	1233.4 m/s
129980 kPa	1261.7 m/s	–
129990 kPa	1260.9 m/s	–
130000 kPa	–	1262 m/s
130010 kPa	–	1262.1 m/s
139970 kPa	1288.8 m/s	–
139980 kPa	1288.1 m/s	1289.1 m/s
140010 kPa	–	1289.5 m/s
149950 kPa	1315 m/s	1315.1 m/s
149970 kPa	1314.1 m/s	–
150000 kPa	–	1315.4 m/s
159950 kPa	–	1340.4 m/s
159960 kPa	–	1340.2 m/s
159970 kPa	1340 m/s	–
159980 kPa	1339.2 m/s	–
169960 kPa	–	1364.5 m/s
169980 kPa	–	1364.2 m/s
170010 kPa	1364.1 m/s	–
170040 kPa	1363.4 m/s	–
179970 kPa	–	1388 m/s
179990 kPa	–	1387.5 m/s
180000 kPa	1386.5 m/s	–
180020 kPa	1387.5 m/s	–
190000 kPa	1409.9 m/s	1410.3 m/s
190010 kPa	1409 m/s	–
190020 kPa	–	1409.9 m/s

Conditions	mass density [kg/m3]
4000 kPa	989.7
4025 kPa	990.23
4050 kPa	990.17
4075 kPa	990.12
4100 kPa	990.09
4125 kPa	990.27
4150 kPa	990.42
4175 kPa	990.57
4200 kPa	990.66
4225 kPa	990.83
4250 kPa	990.91
4275 kPa	991.06
4300 kPa	991.18
4325 kPa	991.32
4350 kPa	991.48
4375 kPa	991.65
4400 kPa	991.73
4425 kPa	991.89
4450 kPa	992.03
4475 kPa	992.14
4500 kPa	992.26
4525 kPa	992.39
4550 kPa	992.55
4575 kPa	992.63
4600 kPa	992.8
4625 kPa	992.88
4650 kPa	993.04
4675 kPa	993.21
4700 kPa	993.29
4725 kPa	993.45
4750 kPa	993.53
4775 kPa	993.7
4800 kPa	993.78
4825 kPa	993.94
4850 kPa	994.11
4875 kPa	994.19
4900 kPa	994.35
4925 kPa	994.43
4950 kPa	994.6
4975 kPa	994.76
5000 kPa	994.84
5025 kPa	995.01
5050 kPa	995.09
5075 kPa	995.25
5100 kPa	995.34
5125 kPa	995.5
5150 kPa	995.58
5175 kPa	995.74
5200 kPa	995.91
5225 kPa	995.99
5250 kPa	996.15
5275 kPa	996.24
5300 kPa	996.4
5325 kPa	996.48
5350 kPa	996.65
5375 kPa	996.73
5400 kPa	996.89
5425 kPa	996.97
5450 kPa	997.14
5475 kPa	997.22
5500 kPa	997.38
5525 kPa	997.46
5550 kPa	997.63
5575 kPa	997.71
5600 kPa	997.87
5625 kPa	997.96
5650 kPa	998.12
5675 kPa	998.2
5700 kPa	998.37
5725 kPa	998.52
5750 kPa	998.61
5775 kPa	998.69
5800 kPa	998.86
5825 kPa	998.94
5850 kPa	999.1
5875 kPa	999.18
5900 kPa	999.35
5925 kPa	999.43
5950 kPa	999.59
5975 kPa	999.68
6000 kPa	999.84
6025 kPa	999.92
6050 kPa	1000.09
6075 kPa	1000.17
6100 kPa	1000.33
6125 kPa	1000.41
6150 kPa	1000.58
6175 kPa	1000.66
6200 kPa	1000.79
6225 kPa	1000.9
6250 kPa	1000.98
6275 kPa	1001.15
6300 kPa	1001.23
6325 kPa	1001.39
6350 kPa	1001.48
6375 kPa	1001.64
6400 kPa	1001.72
6425 kPa	1001.82
6450 kPa	1001.97
6475 kPa	1002.05
6500 kPa	1002.21
6525 kPa	1002.29
6550 kPa	1002.46
6575 kPa	1002.54
6600 kPa	1002.7
6625 kPa	1002.79
6650 kPa	1002.95
6675 kPa	1003.03
6700 kPa	1003.2
6725 kPa	1003.28
6750 kPa	1003.36
6775 kPa	1003.52
6800 kPa	1003.6
6825 kPa	1003.77
6850 kPa	1003.85
6875 kPa	1004.01
6900 kPa	1004.09
6925 kPa	1004.25
6950 kPa	1004.34
6975 kPa	1004.42
7000 kPa	1004.59
7025 kPa	1004.67
7050 kPa	1004.82
7075 kPa	1004.91
7100 kPa	1004.99
7125 kPa	1005.16
7150 kPa	1005.24
7175 kPa	1005.38
7200 kPa	1005.49
7225 kPa	1005.57
7250 kPa	1005.73
7275 kPa	1005.81
7300 kPa	1005.9
7325 kPa	1006.06
7350 kPa	1006.14
7375 kPa	1006.29
7400 kPa	1006.39
7425 kPa	1006.47
7450 kPa	1006.63
7475 kPa	1006.71
7500 kPa	1006.79
